Laboratory results taken from article PMC8252719, “Macrocyclic FKBP51 Ligands Define a Transient Binding Mode with Enhanced Selectivity” (Angewandte Chemie (International Ed. in English), 2021).
Where two headings read alike, the source gives them in different places.

Assays:
[1] = biological target: FKBP12.6 (Homo sapiens, UniProt P68106); experiment: competitive fluorescence polarization assay, FKBP12.6; assay type: binding; conditions: for Ki: competitive fluorescence polarization assay, >80 μM = highest measurable concentration before compound precipitation, ± = standard error from three independent measurements, read-out: FKBP12.6 K i
FKBP12.6, sequence (P68106 whole entry): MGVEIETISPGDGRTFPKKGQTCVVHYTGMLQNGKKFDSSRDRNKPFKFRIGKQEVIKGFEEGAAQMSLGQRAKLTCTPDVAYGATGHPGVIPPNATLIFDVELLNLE

[2] = biological target: T1, FKBP51FK1 (Homo sapiens, UniProt Q13451); experiment: competitive fluorescence polarization assay, FKBP51FK1; assay type: binding; conditions: ± = standard error from three independent measurements [b] or error from two independent measurements [d], read-out: FKBP51FK1 K i
T1 sequence (Q13451 42-130 limits assumed): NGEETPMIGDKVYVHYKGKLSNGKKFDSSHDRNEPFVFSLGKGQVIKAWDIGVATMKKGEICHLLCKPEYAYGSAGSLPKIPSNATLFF
Procedure: Table S1. Ki values were determined by a competitive fluoresc ence polarization assay.
4.1 Binding curves of 13a, c and d […]

[3] = biological target: FKBP12 (Homo sapiens, UniProt P62942); experiment: competitive fluorescence polarization assay, FKBP12; assay type: binding; conditions: for Ki: competitive fluorescence polarization assay, >80 μM = highest measurable concentration before compound precipitation, ± = standard error from three independent measurements, read-out: FKBP12 K i
FKBP12, sequence (P62942 whole entry): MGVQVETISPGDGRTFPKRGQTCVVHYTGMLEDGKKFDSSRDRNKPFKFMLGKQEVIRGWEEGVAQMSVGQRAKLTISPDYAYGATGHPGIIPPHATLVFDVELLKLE

[4] = system: IKKα phosphorylation in SIM-A9 cells; experiment: IKKα inhibition in SIM-A9 cells (Western blot); assay type: cell-based, murine; conditions: for concentration at which apparent maximal inhibition of IKKα phosphorylation was already reached: SIM-A9 cells, lowest tested concentration; for inhibition of IKKα phosphorylation (in words) / dose-dependence of inhibition of IKKα phosphorylation: murine microglia SIM-A9 cells, 16 h treatment, Western blot; for inhibition of IKKα phosphorylation (in words): three (macrocycles) or six (SAFit) independent cellular assays
Procedure: We next explored if the macrocyclic ligands could interfere with the cellular functions of FKBP51. We therefore treated SIM‐A9 cells, which were recently discovered as a SAFit‐sensitive cellular model for stress‐mediated secretory autophagy. ^[24] […] (Figure 2 F and S6C). […]
5.2 IKKα inhibition in SIM-A9 cells
Cell culture and treatments
Murine microglia SIM-A9 cells were cultured at 37 °C, 5% CO2 in Dulbecco's Modified Eagle Medium (DMEM) high glucose with GlutaMAX (Thermo Fisher Scientific, 10566016), supplemented with 1 mM sodium pyruvate (Thermo Fisher Scientific, 11360-070), 10% fetal bovine serum (PAN Biotech, P30-8500), and 1% antibiotic-antimycotic (Thermo Fisher Scientific, 15240-062).
For the preparation of whole-cell lysates, confluent SIM-A9 cell cultures treated with the indicated compounds for 16 h in the above mentioned growth medium, were washed two times with ice-cold DPBS (Thermo Fisher Scientific, 14190-144) and lysed in an appropriate volume of RIPA buffer (Thermo Fisher Scientific, 89901), freshly supplemented with 1x cOmplete™ EDTA-free protease inhibitor cocktail (Roche, 4693132001) and 1x PhosSTOP™ phosphatase inhibitor cocktail (Roche, 4906837001) for 20 min on ice.
Subsequently, samples were centrifuged for 10 min at 4°C at 13000 rpm. The resulting supernatants were transferred to new 1.5 ml reaction tubes and prepared for separation with an SDS-PAGE system and analyzed by immunoblotting.
SDS-PAGE and immunoblotting
Separation of proteins was performed with the Criterion™ Vertical Electrophoresis Cell System (Bio-Rad, 1656001) on 4–20% Criterion™ TGX™ Precast Midi Protein Gels (Bio-Rad, 5671095). Immunoblotting was performed with the Trans-Blot Turbo Transfer System (Bio-Rad, 1704150) on 0.2 µm PVDF Trans-Blot Turbo Transfer Membranes (Bio-Rad, 1704157). For immunodetection, membranes were placed in TBS, supplemented with 0.05% Tween (Sigma-Aldrich, P9416) and 5% non-fat milk (Carl Roth, T145.1) for 1 h at RT and then incubated with the primary antibody diluted in TBS-T overnight at 4°C. Following primary antibodies were used:
Phospho-IKKα S176/phospho-IKKβ S177 (1:1000, Cell Signaling Technology, 2078), IKKα (1:1000, Cell Signaling Technology, 1682) and GAPDH (1:1000, Cell Signaling Techology, 5174).
Then, immunoblots were washed and probed with horseradish peroxidase- conjugated secondary antibody (1:10000, Cell Signaling Technology, 7074) for 1 h at RT. Immunoreactive protein bands were visualized using Clarity Western ECL Substrate (Bio-Rad, 1705061) or Clarity Max Western ECL Substrate (Bio-Rad, 1705062). Determination of the band intensities was performed with […]

[5] = fluorescence polarization assay

| Compound | Ki [1] [µM] | Ki [2] [µM] | Ki [3] [µM] | inhibition of IKKα phosphorylation (in words) [4] | further results |
| --- | --- | --- | --- | --- | --- |
| COc1ccc(CC[C@H]2OC(=O)[C@@H]3CCCCN3C(=O)[C@@H](C3CCCCC3)NC(=O)C3(CCCC3)NC(=O)COc3cccc2c3)cc1OC [13 f] | > 80 | 1.3 | > 80 | – | – |
| COc1ccc(CCC2OC(=O)C3CCCCN3C(=O)C(C3CCCCC3)CC(O)C(O)COCCOc3cccc2c3)cc1OC (mixture of isomers) [9 g] | – | 1.2 | – | – | binding to FKBP12.6 (in words) [1, 5]: did not bind; binding to FKBP12 (in words) [3, 5]: did not bind |
| COc1ccc(CC[C@H]2OC(=O)[C@@H]3CCCCN3C(=O)[C@@H](C3CCCCC3)NC(=O)C(C)(C)NC(=O)COc3cccc2c3)cc1OC [13 c] | > 80 | – | > 80 | inhibited | concentration at which apparent maximal inhibition of IKKα phosphorylation was already reached [4]: ≤ 1 µM; Ki ([2]; SEM): 0.29 ± 0.05 µM |
| COc1ccc(CC[C@H]2OC(=O)[C@@H]3CCCCN3C(=O)[C@@H](C3CCCCC3)NC(=O)CN(C)C(=O)COc3cccc2c3)cc1OC [13 g] | > 80 | 3.1 | > 80 | – | – |
| COc1ccc(CC[C@H]2OC(=O)[C@@H]3CCCCN3C(=O)[C@@H](C3CCCCC3)NC(=O)[C@H](C)NC(=O)COc3cccc2c3)cc1OC [13 j, (2R,5S,12R,15S)-12-cyclohexyl-2-[2-(3,4-dimethoxyphenyl)ethyl]-15-methyl-3,19-dioxa-10,13,16-triazatricyclo[18.3.1.0⁵,¹⁰]tetracosa-1(24),20,22-triene-4,11,14,17-tetrone] | > 80 | – | > 80 | – | – |
| COc1ccc(CC[C@H]2OC(=O)[C@@H]3CCCCN3C(=O)[C@@H](C3CCCCC3)NC(=O)C(C)(C)N(C)C(=O)COc3cccc2c3)cc1OC [13 h] | > 80 | 0.37 | > 80 | inhibited | concentration at which apparent maximal inhibition of IKKα phosphorylation was already reached [4]: ≤ 1 µM |
| COc1ccc(CC[C@H]2OC(=O)[C@@H]3CCCCN3C(=O)[C@@H](C3CCCCC3)NC(=O)[C@@H](C)NC(=O)COc3cccc2c3)cc1OC [13 b, (2R,5S,12R,15R)-12-cyclohexyl-2-[2-(3,4-dimethoxyphenyl)ethyl]-15-methyl-3,19-dioxa-10,13,16-triazatricyclo[18.3.1.0⁵,¹⁰]tetracosa-1(24),20,22-triene-4,11,14,17-tetrone] | > 80 | – | > 80 | – | – |
| COc1ccc(CC[C@H]2OC(=O)[C@@H]3CCCCN3C(=O)[C@@H](C3CCCCC3)NC(=O)[C@@H]3CCCN3C(=O)COc3cccc2c3)cc1OC [13 k, (9S,12R,19S,22R)-12-cyclohexyl-22-[2-(3,4-dimethoxyphenyl)ethyl]-2,21-dioxa-5,11,14-triazatetracyclo[21.3.1.0⁵,⁹.0¹⁴,¹⁹]heptacosa-1(26),23(27),24-triene-4,10,13,20-tetrone] | > 80 | – | > 80 | – | – |
| COc1ccc(CC[C@H]2OC(=O)[C@@H]3CCCCN3C(=O)[C@@H](C3CCCCC3)NC(=O)[C@H]3CCCN3C(=O)COc3cccc2c3)cc1OC [13 i, (9R,12R,19S,22R)-12-cyclohexyl-22-[2-(3,4-dimethoxyphenyl)ethyl]-2,21-dioxa-5,11,14-triazatetracyclo[21.3.1.0⁵,⁹.0¹⁴,¹⁹]heptacosa-1(26),23(27),24-triene-4,10,13,20-tetrone] | > 80 | – | > 80 | inhibited | dose-dependence of inhibition of IKKα phosphorylation [4]: clear dose‐dependence |
| COc1ccc(CC[C@@H](OC(=O)[C@@H]2CCCCN2C(=O)[C@H](c2cc(OC)c(OC)c(OC)c2)C2CCCCC2)c2cccc(OCCN3CCOCC3)c2)cc1OC [SAFit2, reference compound] | – | – | – | inhibited | dose-dependence of inhibition of IKKα phosphorylation [4]: clear dose‐dependence |
| COc1ccc(CC[C@H]2OC(=O)[C@@H]3CCCCN3C(=O)[C@@H](C3CCCCC3)NC(=O)CCNC(=O)COc3cccc2c3)cc1OC [13 l] | > 80 | 7.4 | > 80 | – | – |
